The results in this text go back to US20240101540A1, “TARGETED PROTEIN DEGRADATION OF PARP14 FOR USE IN THERAPY” (Ribon Therapeutics, Inc., priority 2022, published 2024).

Where a name gives a salt, the structure may show the parent alone.

The target in the first experiment is T1, catalytic domain of human PARP14 (residues 1611 to 1801) with NanoLuc tag (Homo sapiens, UniProt Q460N5).
T1 construct: expressed in transfected cells; host or cells: HEK-293T cells (ATCC), pcDNA3.1(-) vector
T1 sequence (Q460N5 1611-1801): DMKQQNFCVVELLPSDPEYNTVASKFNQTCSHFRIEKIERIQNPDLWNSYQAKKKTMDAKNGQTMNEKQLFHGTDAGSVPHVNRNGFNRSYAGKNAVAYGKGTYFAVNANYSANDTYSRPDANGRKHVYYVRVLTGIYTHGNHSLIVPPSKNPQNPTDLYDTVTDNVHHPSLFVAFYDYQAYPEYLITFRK
Briefly: NanoLuc assay for the degradation of PARP14 (NanoLuc-tagged PARP14 overexpressed in HEK-293T cells, 2 hours). The experiment is classed as cell-based. As to conditions: Assay A (Example A): NanoLuc-tagged PARP14 degradation in HEK-293T cells. As to the method: The insert also contained a NanoLuc tag on the N terminus of the PARP14 protein.
Degradation of PARP14 protein was assessed using measurement of the NanoLuc tag as proxy for the PARP14 protein. […] Plasmid DNA was diluted in empty vector DNA then added to 1.163 mL of phenol red free OptiMEM (Thermo Fisher). Plasmid DNA concentrations used in each assay described in Table 1. The plasmid DNA was mixed with 78.5 μL of Fugene HD (Promega) and allowed to incubate 5 minutes.
The transfection was incubated for 24 hrs at 37 degrees in an incubator supplemented with 5% CO2. The cells were then trypsinized and brought up in phenol red free OptiMEM media. […] 40 nL of a dose response curve diluted in DMSO of each test compound was added to the cell plate using a Mosquito (TTP Labtech) and the plate was incubated at 37° C. for 2 hours. Assay plate was brought to room temperature then 20 μL per well of NanoGlo (Promega) was added to the plate. Luminescence was measured on an Envision (Perkin Elmer).
The average DMSO was calculated from 32 wells containing 0.1% DMSO only in columns 12 and 24 of the assay plate. The % of DMSO values were calculated as described below: […]
The % of DMSO values were plotted as a function of compound concentration and the following 4-parameter fit was applied to derive the DC50 values:
where top, bottom, and Hill Coefficient are allowed to float. Y is the % of DMSO and X is the compound concentration
DC50 data for the Example compounds is provided below in Table 2 (“+” is <0.1 μM; “++” is ≥0.1 μM and <1 μM; and “+++” is ≥1 μM).
Consider `O=C1CCC(Nc2ccc(N3CCN(CCN4CCC(COc5cc(F)c6c(=O)[nH]c(CCC7CCOCC7)nc6c5)CC4)CC3)cc2)C(=O)N1` (centres unmarked) [Example 82, 3-((4-(4-(2-(4-(((5-fluoro-4-oxo-2-(2-(tetrahydro-2H-pyran-4-yl)ethyl)-3,4-dihydroquinazolin-7-yl)oxy)methyl)piperidin-1-yl)ethyl)piperazin-1-yl)phenyl)amino)piperidine-2,6-dione], for which the DC50 was under 100 nM.

The same experiment, now with this note: Assay A (Example A): NanoLuc-tagged PARP14 degradation in HEK-293T cells, read-out: DC50.
On to `O=C1CCC(N2C(=O)c3ccc(NCC(=O)N4CCC(COc5cc(F)c6c(=O)[nH]c(CSC7CCOCC7)nc6c5)CC4)cc3C2=O)C(=O)N1` (centres unmarked) [Example 14, 2-(2,6-dioxopiperidin-3-yl)-5-((2-(4-(((5-fluoro-4-oxo-2-(((tetrahydro-2H-pyran-4-yl)thio)methyl)-3,4-dihydroquinazolin-7-yl)oxy)methyl)piperidin-1-yl)-2-oxoethyl)amino)isoindoline-1,3-dione], for which the DC50 is under 100 nM.

`O=C1CCC(N2Cc3cc(C#CCN4CCC(COc5cc(F)c6c(=O)[nH]c(CSC7CCOCC7)nc6c5)CC4)ccc3C2=O)C(=O)N1` (centres unmarked) [Example 29, 3-(5-(3-(4-(((5-fluoro-4-oxo-2-(((tetrahydro-2H-pyran-4-yl)thio)methyl)-3,4-dihydroquinazolin-7-yl)oxy)methyl)piperidin-1-yl)prop-1-yn-1-yl)-1-oxoisoindolin-2-yl)piperidine-2,6-dione]: the DC50 was under 100 nM. Consider `O=C1CCC(N2C(=O)c3ccc(NC(=O)CN4CCC(COc5cc(F)c6c(=O)[nH]c(CSC7CCOCC7)nc6c5)CC4)cc3C2=O)C(=O)N1` (centres unmarked) [Example 25, N-(2-(2,6-dioxopiperidin-3-yl)-1,3-dioxoisoindolin-5-yl)-2-(4-(((5-fluoro-4-oxo-2-(((tetrahydro-2H-pyran-4-yl)thio)methyl)-3,4-dihydroquinazolin-7-yl)oxy)methyl)piperidin-1-yl)acetamide], for which the DC50 was under 100 nM. Still for that read-out and setting: the same measure for `O=C1CCC(N2C(=O)c3cccc(N4CCC(COc5cc(F)c6c(=O)[nH]c(CSC7CCOCC7)nc6c5)CC4)c3C2=O)C(=O)N1` (centres unmarked) [Example 24, 2-(2,6-dioxopiperidin-3-yl)-4-(4-(((5-fluoro-4-oxo-2-(((tetrahydro-2H-pyran-4-yl)thio)methyl)-3,4-dihydroquinazolin-7-yl)oxy)methyl)piperidin-1-yl)isoindoline-1,3-dione]: under 100 nM. Still for that read-out and setting: the same measure for `O=C(CN1CCC(COc2cc(F)c3c(=O)[nH]c(CSC4CCOCC4)nc3c2)CC1)NCCNc1cccc2c1C(=O)N(C1CCC(=O)NC1=O)C2=O` (centres unmarked) [Example 2, N-(2-((2-(2,6-dioxopiperidin-3-yl)-1,3-dioxoisoindolin-4-yl)amino)ethyl)-2-(4-(((5-fluoro-4-oxo-2-(((tetrahydro-2H-pyran-4-yl)thio)methyl)-3,4-dihydroquinazolin-7-yl)oxy)methyl)piperidin-1-yl)acetamide]: under 100 nM. `O=C1CCC(N2C(=O)c3cccc(NCCOCCOCCC(=O)N4CCC(COc5cc(F)c6c(=O)[nH]c(CSC7CCOCC7)nc6c5)CC4)c3C2=O)C(=O)N1` (centres unmarked) [Example 4, 2-(2,6-dioxopiperidin-3-yl)-4-((2-(2-(3-(4-(((5-fluoro-4-oxo-2-(((tetrahydro-2H-pyran-4-yl)thio)methyl)-3,4-dihydroquinazolin-7-yl)oxy)methyl)piperidin-1-yl)-3-oxopropoxy)ethoxy)ethyl)amino)isoindoline-1,3-dione]: the DC50 is under 100 nM. As to `O=C1CCC(N2C(=O)c3cccc(NC(=O)CN4CCC(COc5cc(F)c6c(=O)[nH]c(CSC7CCOCC7)nc6c5)CC4)c3C2=O)C(=O)N1` (centres unmarked) [Example 26, N-(2-(2,6-dioxopiperidin-3-yl)-1,3-dioxoisoindolin-4-yl)-2-(4-(((5-fluoro-4-oxo-2-(((tetrahydro-2H-pyran-4-yl)thio)methyl)-3,4-dihydroquinazolin-7-yl)oxy)methyl)piperidin-1-yl)acetamide], the DC50 is under 100 nM.

Consider `O=C(CN1CCC(COc2cc(F)c3c(=O)[nH]c(CSC4CCOCC4)nc3c2)CC1)NCCCCNc1cccc2c1C(=O)N(C1CCC(=O)NC1=O)C2=O` (centres unmarked) [Example 8, N-(4-((2-(2,6-dioxopiperidin-3-yl)-1,3-dioxoisoindolin-4-yl)amino)butyl)-2-(4-(((5-fluoro-4-oxo-2-(((tetrahydro-2H-pyran-4-yl)thio)methyl)-3,4-dihydroquinazolin-7-yl)oxy)methyl)piperidin-1-yl)acetamide], for which the DC50 is under 100 nM.

For the molecule `O=C1CCC(N2C(=O)c3ccc(N4CCC(CN5CCC(COc6cc(F)c7c(=O)[nH]c(CSC8CCOCC8)nc7c6)CC5)CC4)cc3C2=O)C(=O)N1` (centres unmarked) [Example 34, 2-(2,6-dioxopiperidin-3-yl)-5-(4-((4-(((5-fluoro-4-oxo-2-(((tetrahydro-2H-pyran-4-yl)thio)methyl)-3,4-dihydroquinazolin-7-yl)oxy)methyl)piperidin-1-yl)methyl)piperidin-1-yl)isoindoline-1,3-dione], the 50% degradation concentration (DC50) was under 100 nM. Turning to `O=C1CCC(N2C(=O)c3cccc(NCCOCC(=O)N4CCC(COc5cc(F)c6c(=O)[nH]c(CSC7CCOCC7)nc6c5)CC4)c3C2=O)C(=O)N1` (centres unmarked) [Example 22, 2-(2,6-dioxopiperidin-3-yl)-4-((2-(2-(4-(((5-fluoro-4-oxo-2-(((tetrahydro-2H-pyran-4-yl)thio)methyl)-3,4-dihydroquinazolin-7-yl)oxy)methyl)piperidin-1-yl)-2-oxoethoxy)ethyl)amino)isoindoline-1,3-dione], the DC50 is under 100 nM. As to `O=C1CCC(Nc2ccc(N3CCN(CCN4CCC(COc5cc(F)c6c(=O)[nH]c(CS[C@H]7CC[C@H](O)CC7)nc6c5)CC4)CC3)cc2)C(=O)N1` (some centres unmarked) [Example 83, 3-((4-(4-(2-(4-(((5-fluoro-2-((((1r,4r)-4-hydroxycyclohexyl)thio)methyl)-4-oxo-3,4-dihydroquinazolin-7-yl)oxy)methyl)piperidin-1-yl)ethyl)piperazin-1-yl)phenyl)amino)piperidine-2,6-dione], the DC50 is under 100 nM. Same read-out and setting: the same measure for `O=C1CCC(Nc2ccc(N3CC(CN4CCC(COc5cc(F)c6c(=O)[nH]c(CSC7CCOCC7)nc6c5)CC4)C3)cc2)C(=O)N1` (centres unmarked) [Example 53, 3-((4-(3-((4-(((5-fluoro-4-oxo-2-(((tetrahydro-2H-pyran-4-yl)thio)methyl)-3,4-dihydroquinazolin-7-yl)oxy)methyl)piperidin-1-yl)methyl)azetidin-1-yl)phenyl)amino)piperidine-2,6-dione]: under 100 nM.

Consider `O=C1CCC(N2C(=O)c3ccc(N4CC(N5CCC(COc6cc(F)c7c(=O)[nH]c(CSC8CCOCC8)nc7c6)C(F)(F)C5)C4)cc3C2=O)C(=O)N1` (centres unmarked) [Example 42, 5-(3-(3,3-difluoro-4-(((5-fluoro-4-oxo-2-(((tetrahydro-2H-pyran-4-yl)thio)methyl)-3,4-dihydroquinazolin-7-yl)oxy)methyl)piperidin-1-yl)azetidin-1-yl)-2-(2,6-dioxopiperidin-3-yl)isoindoline-1,3-dione], for which the DC50 is under 100 nM.

Take `O=C1CCN(c2cccc(N3CC(CN4CCC(COc5cc(F)c6c(=O)[nH]c(CSC7CCOCC7)nc6c5)CC4)C3)c2)C(=O)N1` [Example 54, 1-(3-(3-((4-(((5-fluoro-4-oxo-2-(((tetrahydro-2H-pyran-4-yl)thio)methyl)-3,4-dihydroquinazolin-7-yl)oxy)methyl)piperidin-1-yl)methyl)azetidin-1-yl)phenyl)dihydropyrimidine-2,4(1H,3H)-dione formate salt]: the DC50 is under 100 nM.

For `O=C1CCC(N2Cc3c(cccc3N3CC(CN4CCC(COc5cc(F)c6c(=O)[nH]c(CSC7CCOCC7)nc6c5)CC4)C3)C2=O)C(=O)N1` (centres unmarked) [Example 38, 3-(4-(3-((4-(((5-fluoro-4-oxo-2-(((tetrahydro-2H-pyran-4-yl)thio)methyl)-3,4-dihydroquinazolin-7-yl)oxy)methyl)piperidin-1-yl)methyl)azetidin-1-yl)-1-oxoisoindolin-2-yl)piperidine-2,6-dione], the DC50 was under 100 nM. Still for that read-out and setting: the same measure for `O=C1CCC(Nc2ccc(N3CCN(CCN4CCC(COc5cc(F)c6c(=O)[nH]c(CSC7CCOCC7)nc6c5)CC4)CC3)nc2)C(=O)N1` (centres unmarked) [Example 69, 3-((6-(4-(2-(4-(((5-fluoro-4-oxo-2-(((tetrahydro-2H-pyran-4-yl)thio)methyl)-3,4-dihydroquinazolin-7-yl)oxy)methyl)piperidin-1-yl)ethyl)piperazin-1-yl)pyridin-3-yl)amino)piperidine-2,6-dione]: under 100 nM.
